Measured values from patent US10485772B2, “Compositions for modulating cancer stem cells and uses therefor” (University of Canberra, priority 2014, dated 2019).

Key:
MDA-MB 231 cells = experiment: FACS analysis of CD44high/CD24low CSC-like subpopulation in Basal/metastatic model; assay type: cell-based, human; settings: bisindolylmaleimide-I 4 μM
Procedure: Cells from each well/flask were harvested by means of trypsin treatment followed by two washes with PBS. Washed cells then re-suspended in an antibody cocktail consisting anti-CD44-APC, anti-CD24-PE antibodies (details in Table 5) and Hoechst 33258 dye (final dilution of 1:1000) (Invitrogen, Carlsbad, Calif.) in 1% FCS-PBS solution. Cells re-suspended in antibody cocktail were incubated for 20 minutes at 4° C. Cells were next washed twice with PBS and re-suspended in 1% FCS-PBS solution (volume based on cell number) and kept on ice until analyzed by FACS. Forward scatter (FSC) and side scatter parameters were selected with FITC fluorochrome excited by 488 nm argonion laser, PE fluorochrome excited by 488 nm and Hoechst fluorochrome excited by 350 nm helium-cadmium UV laser.
Flow Cytometry data was produced using either BD FACS LSR Flow Cytometer (Becton Dickinson Biosciences) or BD FACS Aria™ II Flow Cytometer (Becton Dickinson Biosciences) and analyzed using the data acquisition software CellQuest Pro (Becton Dickinson Biosciences) and FlowJo (Tree Star Inc., Ashland, Oreg.) software at the MCRF facility, JCSMR, ANU, Canberra, Australia. Single colour controls were used to set compensation parameters. Isotype controls were used for all corresponding primary antibodies in each experiment.
The adherent human mammary adenocarcinoma MCF-7 and MDA-MB-231 cells were cultured in low glucose DMEM (Gibco) and both supplemented with 10% FCS, 2 mM L-glutamine and 0.1% PSN antibiotics. Cells were stimulated with 0.65 ng/ml of phorbol 12-myristate 13-acetate (PMA) (Sigma-Aldrich) or 20 ng/ml of TGF-β (R&D systems) for the times indicated. For Bisindolylmaleimide-I (Calbiochem) or PKC-θ peptide inhibitor (Calbiochem) studies, cells were pre-treated with 1 μM or 30 μM of inhibitor respectively for 1 h prior to stimulation in MCF-7 cells. In case of MDA-MB-231, cells were treated with 4 μM or 30 μM Bisindolylmaleimide-I or PKC-θ peptide inhibitor respectively.
To separate CSC from non-CSC (NCSC), florescence activated cell sorting (FACS) was performed on single-cell suspensions that were stained with anti-CD44-APC (559942, BD Biosciences) and anti-CD24-PE antibodies (555428, BD Biosciences) along with Hoechst 33258 to monitor cell viability. As used throughout this work, CSC are defined by minority CD44^high/CD24^low, whereas NCSC are defined by rest of the cell populations.

[1] = test system: PKC-θ chromatin association at CSC inducible gene promoters (uPAR, CD44); experiment: ChIP assay with anti-PKC-θ antibodies in MCF-IM model; assay type: cell-based, human
Procedure: Between 1-5×10^6 Cells were harvested following various treatments according to the experimental requirement and re-suspended in 10 mL DMEM completer media at room temperature after counting then at Vi-CELL counter. Cells were then cross linked with freshly prepared 1% paraformaldehyde (PFA) (Analytical UNIVAR, Seattle, Wash.) for 10 minutes at room temperature with continuous but slow rotations on rotary wheel. Next, the reaction was quenched by the addition of 2M glycine solution (AnalaR, Merck, Darmstadt, Germany) to a get a final concentration of 125 mM and mixed further for 10 minutes at room temperature on the rotary wheel. Cells were then washed three times with 10 mL ice cold PBS and the cell pellet was either snap frozen on dry ice or used immediately afterwards. SDS Lysis Buffer (Upstate Biotechnology, Billerica, Mass.) was prepared by addition of 1× complete protease inhibitor solution (1 tablet dissolved in 1 mL DEPC water) (Roche Diagnostics, Mannheim, Germany) and cell pellet was then re-suspended in 250 μL of the in the SDS lysis buffer for 10 minutes at room temperature. Cells were sonicated (10 sec pulses for 2 minutes on 1 liter ice cold water mixed with ice, 70% maximum output) to shear the chromatin to obtain an average DNA fragment size of 250-500 bp using a Cole Palmer Ultrasonic processor (Cole Plamer, Vernon Hills, Ill.). […]

## CN(C)CCCn1cc(C2=C(c3c[nH]c4ccccc34)C(=O)NC2=O)c2ccccc21 [bisindolylmaleimide-I]
MDA-MB 231 cells
  CD44 high CD24 low-CSC-like subpopulation by FACS: inhibits CD44 high CD24 low-CSC-like subpopulation
MDA-MB 231 cells; listed as Broad spectrum PKC pathway inhibitor
  CD44 high CD24 low-CSC-like subpopulation by FACS: inhibition of EMT and CSC formation
[1]; MCF-IM model, bisindolylmaleimide-I 1 μM for 1 hr, then PMA for 60 hours
  PKC-θ chromatin association across the uPAR promoter (ChIP): reduces its chromatin association across the uPAR promoter
[1]; as worded in Example 13
  binding of PKC-θ on the CD44 gene promoter (ChIP): reduction of binding of PKC-θ on the CD44 gene promoter
